# Reference: patent US7943338B2, “Autoimmune conditions and NADPH oxidase defects” (Arexis AB, priority 2002, dated 2011)
# “Also recorded” adds a separate entry of the source.
# Columns and labels:
# [1] = in vivo; cited from earlier work
# [2] = In vivo distribution of 14C-labeled oils; design: species or system Rat (Rattus norvegicus)
# Protocol: [1-14C]-Hexadecane and [1-14C]-Oleic acid were purchased from Amersham. The oils were injected intradermally at the base of the tail in 18 DA rats (200 μL). At day 10, the organs (lymph nodes, spleen, liver and kidney) of three rats from each group were collected. The organs were weighed and homogenized in a total volume of 2 mL PBS and frozen. The same procedure was followed at day 20 and at day 30. 1 mL of the homogenised samples was then added to 10 mL Ready Safe (Beckman) and counted in a beta counter. The distribution of radioactive labelled hexadecane to the lymph nodes was also inspected at earlier time points (day 3, day 6, day 10, and day 13).
# DA rats [3] = experiment: Treatment of hexadecane-induced arthritis with hexadecene; assay type: in vivo, Rat (Rattus norvegicus)
# Protocol: Groups of DA rats were injected i.d. at the base of the tail as follows: • Hexadecane 200 μL day 0; • Hexadecene 200 μL day 0; • Hexadecene 200 μL day −5, Hexadecane 200 μL day 0; • Olive oil 200 μL day −5, Hexadecane 200 μL day 0; • Hexadecene 200 μL day +5, Hexadecane 200 μL day 0; and • Olive oil day 200 μL +5, Hexadecane 200 μL day 0.
# The rats were scored as indicated above. Olive oil was used as a control.
# [4] = in vivo; cited from earlier work; remark: listed apart in the source
# DA rats [5] = experiment: Arthritis-inducing effect of oils injected intradermally at the base of the tail; assay type: in vivo, Rat (Rattus norvegicus); conditions: oil injected intradermally at base of tail, scored days 12-31, FIG. 10
# From the text: The arthritis-inducing effects of the oils was examined by injecting the oils intradermally into DA rats. […] Note that p<0.05 for alkanes shorter than C15 compared to C19. All statistics evaluated with student's t-test. N=4 for all groups.
# NADPH complex [6] = experiment: Oxygen burst studies, activation of NADPH complex (cell type not stated); assay type: cell-based; conditions: oxygen burst studies / WST-1 assay
# Protocol: The unsaturated fatty acids C14:1-C24:1 (myristoleic acid, palmitoleic acid, oleic acid, linoleic acid, linolenic acid, 11c-eicosenoic acid, arachidonic acid, erucic acid, and neuronic acid) and squalenee (Sigma) were also tested.
# (§1) 10 μL of each of the oils to be tested was added with 9 μL of WST1 to the wells of a 96 well microtitre plate. 10^6 cells/mL (100 μL of 10^7 cells/mL) were added to each well and the color change measured in a spectrophotometer at 450 nm at 37° for 60 minutes (one measurement/min).
# 10 μL each of the oils to be tested were added to the wells of a 96 well microtitre plate. 50 μL of cytochrome C (4 mg/mL) and […] (50 μL of 10^7 cells/mL) were added to each well and the absorbance measured in a spectrophotometer at 550 nm at 37° C. for 60 minutes (one measurement/minute).
# DA rats [7] = experiment: Treatment of active PIA with phytol or undecane; assay type: in vivo, Rat (Rattus norvegicus); conditions: 200 μL i.p. or i.d. at day 21 and day 26; FIG. 23
# Protocol: Groups of DA rats were injected with […] at day 0. The […] (150 μL) was injected intra-dermal at the base of the tail. The rats were scored from day 9 using the extended scoring system (see above). Then, the rats were treated at day 21 and at day 26 with one of the following alternatives: (1) 200 μL phytol intra-peritoneal; (2) 200 μL phytol intra-dermal at the base of the tail; (3) 200 μL undecane intra-peritoneal; (4) 200 μL undecane intra-dermal at the base of the tail; or (5) control untreated.
# DA rats [8] = experiment: Collagen induced arthritis (CIA) in rats treated with phytol; assay type: in vivo, Rat (Rattus norvegicus); conditions: FIG. 22
# Protocol: DA rats were treated according to one of the following alternatives: (1) 200 μL phytol intra-dermal at the base of the tail at day −10; (2) 200 μL phytol intra-dermal at the base of the tail at day −5; (3) 200 μL phytol intra-peritoneal at day −5 and day +5; or (4) control untreated. CIA was induced in all animals at day 0 by injecting […] of collagen II dissolved in 75 μL 0.1 M Acetic acid and emulsified in 75 μL IFA. The rats were scored from day 10 using the extended scoring system (see above).
# DA rats [9] = experiment: Route of administration of phytol in treatment of PIA; assay type: in vivo, Rat (Rattus norvegicus); conditions: FIG. 17
# Protocol: Groups of DA rats were treated with phytol according to one of the following treatment regimens at day −5 and at day +5. All rats were injected with […] (200 μL) at day 0 intradermally at the base of the tail. Phytol was administered to groups of rats as follows: • 25 μL phytol intranasally (i.n.); • 200 μL phytol intraperitoneally (i.p.); • 200 μL phytol intradermally at the base of the tail (i.d.); and • 1 mL phytol per os (p.o.).
# The rats were scored from day 9 using the extended scoring system (as discussed previously).
# DA rats [10] = experiment: Treatment of experimental allergic encephalomyelitis (EAE) with phytol; assay type: in vivo, Rat (Rattus norvegicus); conditions: 200 μL phytol at day -10 and day +5; olive oil control; p<0.05; FIG. 16
# Protocol: Groups of DA rats were injected at the base of the tail with 200 μL phytol at day -10, day -5, and day +5. Olive oil was used as a control. At day 0, all rats were treated (immunized) with 200 μL SCH (DA spinal cord homogenate, to induce EAE) i.d. at the base of the tail. The rats were then scored according to the following scale for 40 days: • 0=Normal • 1=Tail weakness • 2=Tail paralysis • 3=Tail paralysis and mild […] • 4=Tail paralysis and severe […] • 5=Tail paralysis and paralysis of one limb • 6=Tail paralysis and paralysis of a pair of limbs • 7=Tetra-paresis • 8=Pre-morbid or dead.
# DA rats [11] = experiment: Treatment/prevention of pristane-induced arthritis with undecane; assay type: in vivo, Rat (Rattus norvegicus)
# Protocol: Groups of DA rats were injected intradermally at the base of the tail with 200 μL of the oils as indicated below: • Undecane day −10, […] day 0; • Olive oil day −10, […] day 0; • Undecane day −5, […] day 0; • Undecanol day −5, […] day 0; Olive oil day −5, […] day 0; • Undecane day 5, […] day 0; and • Olive oil day 5, […] day 0.
# The rats were scored every other day starting at day 11 according to the extended scoring system where every red or swollen toe or mid foot scored one point, and a red and swollen ankle scored five points, yielding a total of 15 points/limb and 60 points/rat. Olive oil and undecanol were used as controls.
# NADPH complex [12] = experiment: Oxidative burst WST-1 assay, E3 rat peritoneal cells; assay type: cell-based; conditions: peritoneal cells from E3 rat after thioglycolate; FIG. 9A
# Protocol: The unsaturated fatty acids C14:1-C24:1 (myristoleic acid, palmitoleic acid, oleic acid, linoleic acid, linolenic acid, 11c-eicosenoic acid, arachidonic acid, erucic acid, and neuronic acid) and squalenee (Sigma) were also tested. The oils were solubilized by dilution in cyclodextrin (100 mM in PBS).
# 5 mL thioglycolate (2.4%) was injected intraperitoneally in E3 rats to elicit recruitment of neutrophils 16 hours before sacrifice. 40 mL PBS+hepes (1%) was injected into the peritoneum and the cell suspension extracted. Red blood cells were lysed with 0.84% NH4Cl, and WBC were washed in PBS and resuspended in PBS at a concentration of about 10^7 cells/mL.
# as §1
# NADPH complex [13] = target: T1, NADPH complex (Homo sapiens, UniProt P14598); experiment: Oxidative burst WST-1 assay, HL60 cells; assay type: cell-based; conditions: FIG. 9B
# T1 construct: endogenous in cells; host or cells: HL60 cells differentiated with 1.25% DMSO
# T1 sequence (P14598 1-390): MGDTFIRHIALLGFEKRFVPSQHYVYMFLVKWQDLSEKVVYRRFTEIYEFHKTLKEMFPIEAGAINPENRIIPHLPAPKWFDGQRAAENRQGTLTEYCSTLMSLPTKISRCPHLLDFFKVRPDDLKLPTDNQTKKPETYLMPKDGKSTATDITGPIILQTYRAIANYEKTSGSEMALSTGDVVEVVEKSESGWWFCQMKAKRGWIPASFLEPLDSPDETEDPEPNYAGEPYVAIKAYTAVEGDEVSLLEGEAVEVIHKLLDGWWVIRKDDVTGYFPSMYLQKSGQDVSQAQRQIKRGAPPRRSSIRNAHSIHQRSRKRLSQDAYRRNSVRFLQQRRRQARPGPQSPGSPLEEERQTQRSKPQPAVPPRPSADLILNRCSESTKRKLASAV
# Protocol: The unsaturated fatty acids C14:1-C24:1 (myristoleic acid, palmitoleic acid, oleic acid, linoleic acid, linolenic acid, 11c-eicosenoic acid, arachidonic acid, erucic acid, and neuronic acid) and squalenee (Sigma) were also tested. The oils were solubilized by dilution in cyclodextrin (100 mM in PBS). Human […] cell line HL60 was cultured in Dulbeccos complete medium with Hepes, 10% Fetal calf serum, and Penicillin-Streptomycin. HL60 cells differentiated to neutrophil-macrophages six days after addition of 1.25% DMSO. The cells were spun down at 1200 rpm for 5 minutes and then washed with PBS twice. The cells were then resuspended in PBS to a concentration of about 10^7 cells/mL. 10 μL of each of the oils to be tested was added with 9 μL of WST1 to the wells of a 96 well microtitre plate. 10^6 cells/mL (100 μL of 10^7 cells/mL) were added to each well and the color change measured in a spectrophotometer at 450 nm at 37° for 60 minutes (one measurement/min).
# [14] = Lymph node distribution of 14C-hexadecane after hexadecene at day -5; assay type: in vivo, Rat (Rattus norvegicus); conditions: hexadecene 0, 50, 100 or 200 μL day -5; 14C-hexadecane day 0; day 10
# Protocol: An experiment was performed to determine if oils compete for available space in the lymph nodes and if such a competition was the reason for the preventive effects of pre-treatment with hexadecene and undecane. At day −5, DA rats were injected with one of the following amounts of hexadecene: 0 μL, 50 μL, 100 μL, or 200 μL. At day 0, all rats were injected intradermally with 14C-hexadecane at the base of the tail. At day 10, the rats were sacrificed and the lymph nodes were collected and placed in PBS, homogenized, and frozen. 1 mL of the homogenate was then transferred to Ready Safe (Beckman) and analysed in a β-counter (Beckman).
compound,measurement,setting,value
CCCCCCCCCCCCCCCC [hexadecane],arthritis induction,[1],induce arthritis
same,arthritis in rats treated with radioactively-labeled oils,"[2]; 200 μL i.d. at base of tail, DA rats, FIG. 13",only the rats injected with hexadecane had arthritis
same,time of maximum accumulation in the lymph nodes,[2]; FIG. 15,10 days
same,time course of accumulation in the lymph nodes,"[2]; days 3, 6, 10, 13 and later, FIG. 15",increase in the accumulation of hexadecane in the lymph nodes until day 10; also recorded: slowly decreased
same,extent of distribution to the lymph nodes,[2]; hexadecane compared with oleic acid,higher extent than oleic acid
same,arthritis-inducing capacity,"DA rats [3]; rat, in vivo",induces arthritis
same,distribution of 14C-labeled hexadecane,[4],disseminated predominantly to the lymph nodes
same,arthritis induction,DA rats [5],induced arthritis
same,activation of the NADPH complex,NADPH complex [6],activated the complex
C/C(=C\CO)CCC[C@H](C)CCC[C@H](C)CCCC(C)C [phytol],effect on active arthritis in PIA rat model,DA rats [7],effective against active arthritis
same,arthritis induction,[1],do not
same,development of arthritis in CIA rat model,DA rats [8]; 200 μL phytol intra-dermal day -10 or day -5,prevented development of arthritis
same,development of arthritis in CIA rat model,DA rats [8]; 200 μL phytol intra-peritoneal day -5 and day +5,prevented development of arthritis
same,effect on PIA,DA rats [9]; 25 μL phytol i.n. day -5 and day +5,ameliorative and preventive effects
same,effect on PIA,DA rats [9]; 200 μL phytol i.d. day -5 and day +5,ameliorating and preventive effect
same,effect on PIA,DA rats [9]; 200 μL phytol i.p. day -5 and day +5,ameliorative and preventive effects
same,"additive score and maximum score of EAE, phytol vs control rats",DA rats [10],significant difference
CCCCCCCCCCC [undecane],effect on active arthritis in PIA rat model,DA rats [7],effective against active arthritis
same,"additive score and maximum score of PIA, undecane vs olive oil","DA rats [11]; 200 μL i.d. day -5, pristane day 0, p<0.05, FIG. 11B, 11C",significant difference
same,"additive score and maximum score of PIA, undecane vs undecanol","DA rats [11]; 200 μL i.d. day -5, pristane day 0, p=0.05 additive, p<0.05 maximum",significant difference
same,"arthritis score / preventive effect, undecane day +5 compared with day -10 or day -5","DA rats [11]; 200 μL i.d., pristane day 0",slightly higher score; also recorded: did not show as significant a preventive effect as at day −10 or at day −5
same,activation of the oxidative burst (WST-1 assay),NADPH complex [12],potent activator
same,activation of the oxidative burst (WST-1 assay),NADPH complex [13],potent activator
same,arthritis induction,DA rats [5],did not induce arthritis
same,activation of the NADPH complex,NADPH complex [6],activated the NADPH complex
hexadecene,arthritis induction,[1],do not
same,arthritis-inducing capacity,"DA rats [3]; 200 μL i.d. day 0 alone, FIG. 12, p<0.05 hexadecane vs hexadecene",does not
same,development of hexadecane induced arthritis,"DA rats [3]; hexadecene 200 μL i.d. day -5 or day +5, hexadecane day 0",None of the rats treated with hexadecene developed arthritis; also recorded: None of the rats treated with hexadecene showed any symptoms of arthritis
same,difference in arthritis scores vs control rats,"DA rats [3]; hexadecene day -5 and day +5, p<0.05",significant
same,amount of hexadecane in draining lymph nodes,[14],not affected
